Laboratory results reported in patent publication US20250332173A1, “COMPOUNDS AND METHODS FOR MODULATING NUCLEIC ACID SPLICING” (REMIX THERAPEUTICS INC., priority 2021, published 2025).
Where two headings read alike, the source gives them in different places.

What was measured:
[1] = system: MYB mRNA; experiment: RT-qPCR splicing assay, MYB canonical junction (CJ) and alternative junction (AJ) mRNA; type: cell-based, human; conditions: Homo sapiens; for AC50: increase in MYB alternative junction (AJ) mRNA, read-out: MYB AJ AC50
Procedure, shortened: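 Splicing switches were read by TaqMan RT-qPCR on lysates, quantifying exon-exon junctions of the canonical and alternative-exon isoforms. Lysates came from K562 (GAPDH/GUSB reference) or A673 (PPIA reference) cells exposed 24 h to compound in 11 threefold steps from 10 uM, with DMSO ≤0.25%.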

[2] = system: SMN2 mRNA; experiment: RT-qPCR splicing assay, SMN2 canonical junction (CJ) mRNA; type: cell-based, human; conditions: Homo sapiens
Procedure, shortened: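 Canonical exon-exon junction transcript levels measured by one-step RT-qPCR of cell lysates, normalized to a housekeeping gene (GAPDH, GUSB or PPIA). Cells used were A673 or K562, exposed for 24 h to compound in 11-point, 3-fold series from 10 uM, with final DMSO at or below 0.25%.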

[3] = Table 5 panel, canonical junction qPCR, compound concentration having 50% response in CJ decrease, read-out: MYB IC50 (decrease in CJ mRNA levels)
[4] = decrease in MYB canonical junction (CJ) mRNA, RT-qPCR, read-out: MYB CJ IC50
[5] = Table 5 panel, canonical junction qPCR, compound concentration having 50% response in CJ decrease, read-out: SMN2 IC50 (decrease in CJ mRNA levels)
[6] = canonical junction qPCR panel, Table 5, read-out: MYB (decrease in CJ mRNA levels, IC50)
[7] = canonical junction qPCR panel, Table 5, read-out: SMN2 (decrease in CJ mRNA levels, IC50)

Cc1cn2nc(-c3cc4ccn(C5CCNCC5)c(=O)c4cn3)cc(C)c2n1 [Compound 1198, 6-(2,8-dimethylimidazo[1,2-b]pyridazin-6-yl)-2-(piperidin-4-yl)-2,7-naphthyridin-1(2H)-one]
IC50 [1, 3]: 100 to 1000 nM
IC50 [1, 4]: 100 to 1000 nM
AC50 ([1]; RT-qPCR): 100 to 1000 nM
IC50 [2, 5]: 100 to 1000 nM

Cc1c(O)c(-c2ncc3c(=O)n([C@@H]4CC5CC4CN5)ccc3n2)cc2cn(C)nc12 (stereo in doubt) [Compound 1443, 6-[(1R,4R,5R)-2-azabicyclo[2.2.1]heptan-5-yl]-2-(6-hydroxy-2,7-dimethyl-indazol-5-yl)pyrido[4,3-d]pyrimidin-5-one]
IC50 [1, 6]: 100 to 1000 nM
IC50 [1, 4]: 100 to 1000 nM
AC50 ([1]; RT-qPCR): 100 to 1000 nM
IC50 [2, 7]: < 100 nM

Cc1cn2cc(-c3cc4ccn(C5CCNCC5)c(=O)c4cn3)nc(C)c2n1 [Compound 1205, 6-(2,8-dimethylimidazo[1,2-a]pyrazin-6-yl)-2-(piperidin-4-yl)-2,7-naphthyridin-1(2H)-one]
IC50 [1, 3]: 100 to 1000 nM
IC50 [1, 4]: 100 to 1000 nM
AC50 ([1]; RT-qPCR): 100 to 1000 nM
IC50 [2, 5]: < 100 nM

Cc1cn2cc(-c3cc4ccn(C5CCNC5)c(=O)c4cn3)cc(C#N)c2n1 (centres unmarked) [Compound 1214]
IC50 [1, 3]: 1000 to 10000 nM
IC50 [1, 4]: 1000 to 10000 nM
AC50 ([1]; RT-qPCR): 1000 to 10000 nM
IC50 [2, 5]: 100 to 1000 nM

Cc1cn2cc(-c3ccc4c(=O)n(C5CCNCC5)ccc4n3)nc(C)c2n1 [Compound 1238, 2-(2,8-dimethylimidazo[1,2-a]pyrazin-6-yl)-6-(piperidin-4-yl)-1,6-naphthyridin-5(6H)-one]
IC50 [1, 6]: > 10000 nM
IC50 [1, 4]: 1000 to 10000 nM
AC50 ([1]; RT-qPCR): > 10000 nM
IC50 [2, 7]: 1000 to 10000 nM

Cc1cn2cc(-c3ncc4c(=O)n([C@@H]5CCNC5)ccc4n3)cc(F)c2n1 [Compound 1228]
IC50 [1, 3]: 100 to 1000 nM
IC50 [1, 4]: 1000 to 10000 nM
AC50 ([1]; RT-qPCR): 100 to 1000 nM
IC50 [2, 5]: < 100 nM

Cc1c(O)c(-c2ncc3c(=O)n(C4CCNC4)ccc3n2)cc2cn(C)nc12 (stereo in doubt) [Compound 1439, (6R)-2-(6-hydroxy-2,7-dimethyl-indazol-5-yl)-6-pyrrolidin-3-yl-pyrido[4,3-d]pyrimidin-5-one]
IC50 [1, 6]: 100 to 1000 nM
IC50 [1, 4]: 100 to 1000 nM
AC50 ([1]; RT-qPCR): 100 to 1000 nM
IC50 [2, 7]: < 100 nM

Cn1cc2cc(-c3ncc4c(=O)n(C5CCNC5)ccc4n3)c(O)c(F)c2n1 (centres unmarked) [Compound 1223]
IC50 [1, 3]: 100 to 1000 nM
IC50 [1, 4]: 100 to 1000 nM
AC50 ([1]; RT-qPCR): 100 to 1000 nM
IC50 [2, 5]: < 100 nM

Cn1cc2ccc(-n3cnc4cc(NC5CCNCC5)ccc4c3=O)cc2n1 [Compound 204]
IC50 [1, 3]: > 10000 nM
IC50 [1, 4]: > 10000 nM
AC50 ([1]; RT-qPCR): > 10000 nM
IC50 [2, 5]: > 10000 nM

Cc1cn2cc(-c3ccc4c(=O)n(C5CCNCC5)ccc4n3)c(O)cc2n1 [Compound 1240]
IC50 [1, 6]: 1000 to 10000 nM
IC50 [1, 4]: 1000 to 10000 nM
AC50 ([1]; RT-qPCR): 1000 to 10000 nM
IC50 [2, 7]: 100 to 1000 nM

Cn1cc2cc(-c3ncc4c(=O)n(C5CCNCC5)ccc4n3)cc(F)c2n1 [Compound 1212, 2-(7-fluoro-2-methyl-2H-indazol-5-yl)-6-(piperidin-4-yl)pyrido[4,3-d]pyrimidin-5(6H)-one]
IC50 [1, 3]: < 100 nM
IC50 [1, 4]: 100 to 1000 nM
AC50 ([1]; RT-qPCR): < 100 nM
IC50 [2, 5]: < 100 nM

Cc1cn2cc(-c3ccc4c(=O)n(C5CCNC5)ccc4n3)cc(F)c2n1 (centres unmarked) [Compound 1299]
IC50 [1, 6]: 100 to 1000 nM
IC50 [1, 4]: 1000 to 10000 nM
AC50 ([1]; RT-qPCR): 100 to 1000 nM
IC50 [2, 7]: 100 to 1000 nM

Cc1c(O)c(-c2ncc3c(=O)n([C@@H]4C[C@@H](C)N[C@@H](C)C4)ccc3n2)cc2cn(C)nc12 [Compound 1453, 6-[(2S,6R)-2,6-dimethyl-4-piperidyl]-2-(6-hydroxy-2,7-dimethyl-indazol-5-yl)pyrido[4,3-d]pyrimidin-5-one]
IC50 [1, 6]: 100 to 1000 nM
IC50 [1, 4]: 1000 to 10000 nM
AC50 ([1]; RT-qPCR): 100 to 1000 nM
IC50 [2, 7]: < 100 nM

Cc1cc(-c2cc3ccn(C4CCN(C5CC5)CC4)c(=O)c3cn2)cc2cn(C)nc12 [Compound 1208, 2-(1-cyclopropylpiperidin-4-yl)-6-(2,7-dimethyl-2H-indazol-5-yl)-2,7-naphthyridin-1(2H)-one]
IC50 [1, 3]: 1000 to 10000 nM
IC50 [1, 4]: 1000 to 10000 nM
AC50 ([1]; RT-qPCR): 1000 to 10000 nM
IC50 [2, 5]: 100 to 1000 nM

Cn1cc2cc(-c3ncc4c(=O)n(C5CCNCC5)ccc4n3)c(O)cc2n1 [Compound 1211]
IC50 [1, 3]: 100 to 1000 nM
IC50 [1, 4]: < 100 nM
AC50 ([1]; RT-qPCR): 100 to 1000 nM
IC50 [2, 5]: < 100 nM

Cc1cc(-c2cc3ccn(C4CCN(C5COC5)CC4)c(=O)c3cn2)cc2cn(C)nc12 [Compound 1209, 6-(2,7-dimethyl-2H-indazol-5-yl)-2-(1-(oxetan-3-yl)piperidin-4-yl)-2,7-naphthyridin-1(2H)-one-1]
IC50 [1, 3]: 100 to 1000 nM
IC50 [1, 4]: 100 to 1000 nM
AC50 ([1]; RT-qPCR): 100 to 1000 nM
IC50 [2, 5]: 100 to 1000 nM

CN1CCC(Nc2ccc3c(=O)n(-c4ccc5cn(C)nc5c4)cnc3c2)CC1 [Compound 203]
IC50 [1, 3]: > 10000 nM
IC50 [1, 4]: > 10000 nM
AC50 ([1]; RT-qPCR): > 10000 nM
IC50 [2, 5]: > 10000 nM
